{
  "source": "ChEMBL document CHEMBL4421721",
  "about": "“Use of dynamin ring stabilizers” (2012)",
  "key": {"[1]": {"species": "Ovis aries", "assay": "Induction of self assembly of full-length native sheep brain dynamin 1 assessed as formation of dynamin rings at 5.4 uM using 200 nM full-length dynamin in absence of PS liposomes by electron microscopic analysis"}, "[2]": {"species": "Ovis aries", "assay": "Inhibition of full-length native sheep brain dynamin 1 assessed as reduction in PS liposomes-induced GTPase activity at 5 uM"}, "[3]": {"species": "Ovis aries", "assay": "Inhibition of full-length native sheep brain dynamin 1 assessed as reduction in PS liposomes-induced GTPase activity at 5 uM using 400 nM full-length dynamin 1"}, "[4]": {"species": "Ovis aries", "assay": "Ring stabilizer activity at full-length native sheep brain dynamin 1 assessed as stimulation of GTPase activity at 5 uM in absence of PS liposomes using =>100 nM full-length dynamin 1"}, "[5]": {"species": "Ovis aries", "assay": "Ring stabilizer activity at full-length native sheep brain dynamin 1 assessed as stimulation of GTPase activity at 5 uM in absence of PS liposomes using <100 nM full-length dynamin 1"}, "[6]": {"assay": "Inhibition of helical full-length native sheep brain dynamin 1 assessed as reduction in PS liposomes-induced GTPase activity", "set-up": "species or system Ovis aries"}, "[7]": {"species": "Ovis aries", "assay": "Ring stabilizer activity at full-length native sheep brain dynamin 1 assessed as stimulation of GTPase activity using 800 nM full-length dynamin in presence of 30 mM NaCl in absence of PS liposomes and measured after 4 mins", "conditions": "TDE = time-dependent effect"}, "[8]": {"molecular_target": "T1, Dynamin-1 (Homo sapiens) (UniProt Q05193)", "T1 sequence (whole entry)": "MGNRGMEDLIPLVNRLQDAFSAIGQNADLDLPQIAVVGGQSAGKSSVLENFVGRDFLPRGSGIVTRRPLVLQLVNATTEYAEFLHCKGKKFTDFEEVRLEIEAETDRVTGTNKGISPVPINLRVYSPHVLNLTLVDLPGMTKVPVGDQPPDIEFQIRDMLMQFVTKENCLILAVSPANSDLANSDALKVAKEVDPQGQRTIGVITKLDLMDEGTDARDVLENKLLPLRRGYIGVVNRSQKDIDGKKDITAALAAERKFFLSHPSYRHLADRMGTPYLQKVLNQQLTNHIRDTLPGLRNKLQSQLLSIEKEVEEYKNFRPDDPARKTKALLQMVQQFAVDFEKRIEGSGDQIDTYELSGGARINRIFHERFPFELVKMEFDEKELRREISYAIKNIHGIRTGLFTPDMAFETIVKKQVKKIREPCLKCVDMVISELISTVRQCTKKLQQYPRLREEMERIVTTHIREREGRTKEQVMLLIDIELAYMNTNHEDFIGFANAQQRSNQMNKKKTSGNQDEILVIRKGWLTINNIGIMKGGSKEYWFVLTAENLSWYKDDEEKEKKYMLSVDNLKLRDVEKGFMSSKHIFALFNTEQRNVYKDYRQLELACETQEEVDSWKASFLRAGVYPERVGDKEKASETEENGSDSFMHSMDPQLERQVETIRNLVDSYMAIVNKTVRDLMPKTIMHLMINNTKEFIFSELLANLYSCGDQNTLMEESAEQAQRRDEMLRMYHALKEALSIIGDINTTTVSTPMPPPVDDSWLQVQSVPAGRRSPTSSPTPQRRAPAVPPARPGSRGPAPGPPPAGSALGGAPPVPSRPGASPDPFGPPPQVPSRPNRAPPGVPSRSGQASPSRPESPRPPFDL", "assay": "Ring stabilizer activity at recombinant dynamin 1 dimeric GG2 form (unknown origin) assessed as stimulation of GTPase activity using 200 to 1000 nM full-length dynamin"}, "[9]": {"species": "Ovis aries", "assay": "Inhibition of dis-assembly of pre-assembled full-length native sheep brain dynamin 1 pre-incubated in presence of PS liposomes followed compound addition at 5 uM and measured after 10 mins"}, "[10]": {"species": "Ovis aries", "assay": "Induction of helical shape alteration of full-length native sheep brain dynamin 1 by electron microscopic analysis"}, "[11]": {"species": "Ovis aries", "assay": "Ring stabilizer activity at full-length native sheep brain dynamin 1 assessed as stimulation of GTPase activity in absence of PS liposomes and in presence of tween-80"}, "[12]": {"species": "Ovis aries", "assay": "Ring stabilizer activity at full-length native sheep brain dynamin 1 assessed as increase in basal dynamin GTP hydrolysis up to 40 mins"}, "[13]": {"species": "Ovis aries", "assay": "Ring stabilizer activity at full-length native sheep brain dynamin 1 assessed as increase in basal dynamin GTP hydrolysis up to 40 mins in presence of Gsn-F-actin"}, "[14]": {"molecular_target": "T2, Dynamin-1 (Mus musculus) (UniProt P39053)", "T2 sequence (whole entry)": "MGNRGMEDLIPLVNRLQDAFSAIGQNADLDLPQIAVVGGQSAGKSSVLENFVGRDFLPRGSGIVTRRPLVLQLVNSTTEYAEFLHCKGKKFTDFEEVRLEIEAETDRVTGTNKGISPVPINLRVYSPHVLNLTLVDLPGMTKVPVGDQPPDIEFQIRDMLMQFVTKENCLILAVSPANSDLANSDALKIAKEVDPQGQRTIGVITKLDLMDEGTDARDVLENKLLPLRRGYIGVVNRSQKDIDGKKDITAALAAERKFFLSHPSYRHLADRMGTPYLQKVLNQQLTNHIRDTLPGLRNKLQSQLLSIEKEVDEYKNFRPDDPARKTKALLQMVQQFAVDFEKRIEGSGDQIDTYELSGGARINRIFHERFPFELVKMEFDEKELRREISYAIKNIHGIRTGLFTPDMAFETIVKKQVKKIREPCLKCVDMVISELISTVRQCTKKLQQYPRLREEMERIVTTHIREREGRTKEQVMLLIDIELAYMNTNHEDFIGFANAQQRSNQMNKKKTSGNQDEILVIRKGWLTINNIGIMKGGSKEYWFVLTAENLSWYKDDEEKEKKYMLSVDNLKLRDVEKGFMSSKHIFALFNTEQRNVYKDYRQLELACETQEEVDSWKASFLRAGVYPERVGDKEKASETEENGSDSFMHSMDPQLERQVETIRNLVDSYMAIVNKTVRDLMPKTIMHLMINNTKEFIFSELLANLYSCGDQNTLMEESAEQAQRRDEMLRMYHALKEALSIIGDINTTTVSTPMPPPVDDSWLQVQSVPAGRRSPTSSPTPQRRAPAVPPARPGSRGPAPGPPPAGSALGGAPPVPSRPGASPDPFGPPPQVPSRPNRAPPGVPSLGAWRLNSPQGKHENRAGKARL", "assay": "Ring stabilizer activity at dynamin in mouse podocytes assessed as increase in well-defined stress fibers incubated for 10 mins", "type": "cell-based"}, "[15]": {"molecular_target": "T2, Dynamin-1 (Mus musculus)", "assay": "Ring stabilizer activity at dynamin in mouse podocytes assessed as increase in focal adhesions incubated for 10 mins by paxillin staining based assay", "type": "cell-based"}, "[16]": {"species": "Mus musculus", "assay": "Inhibition of endocytosis in mouse podocytes", "type": "functional, cell-based"}, "[17]": {"test_system": "Mus musculus", "assay": "Reduction in proteinuria in mouse model of proteinuria expressing ACTN4 gene gain of function mutation at 166 ug/100 g body weight, ip dosed at 0 hrs and measured every 2 hrs post dose up to 6 hrs by ELISA and creatinine companion assay", "type": "functional, organism-based"}, "[18]": {"test_system": "Mus musculus", "assay": "Reduction in proteinuria in BALB/c mouse model of LPS-induced reversible proteinuric kidney disease at 300 ug/100 g body weight, ip measured 2 to 6 hrs post dose by ELISA", "type": "functional, organism-based"}, "[19]": {"test_system": "Mus musculus", "assay": "Reduction in proteinuria in BALB/c mouse model of LPS-induced reversible proteinuric kidney disease at 300 ug/100 g body weight, ip measured 8 hrs post dose by ELISA", "type": "functional, organism-based"}},
  "note": "The source made the active and inactive calls. The rule behind the calls is not given here.",
  "data": [
    {"smiles": "N#C/C(=C\\c1cc(O)c(O)c(O)c1)C(=O)NCCCNC(=O)/C(C#N)=C/c1cc(O)c(O)c(O)c1", "values": [
      {"measurement": "Activity", "setting": "[1]", "value": "Active"},
      {"measurement": "inhibition", "setting": "[2]", "value": "Active"},
      {"measurement": "inhibition", "setting": "[3]", "value": "inactive"},
      {"measurement": "Activity", "setting": "[4]", "value": "Active"},
      {"measurement": "Activity", "setting": "[5]", "value": "inactive"},
      {"measurement": "IC50", "setting": "[6]", "value": 500, "unit": "nM"},
      {"measurement": "Activity", "setting": "[7]", "value": "Tde"},
      {"measurement": "Activity", "setting": "[8]", "value": "inactive"},
      {"measurement": "inhibition", "setting": "[9]", "value": "Active"},
      {"measurement": "Activity", "setting": "[10]", "value": "Active"},
      {"measurement": "Activity", "setting": "[11]", "value": "Active"},
      {"measurement": "Activity", "setting": "[12]", "value": "Active"},
      {"measurement": "Activity", "setting": "[13]", "value": "Active"},
      {"measurement": "Activity", "setting": "[14]", "value": "Active"},
      {"measurement": "Activity", "setting": "[15]", "value": "Active"},
      {"measurement": "inhibition", "setting": "[16]", "value": "Active"},
      {"measurement": "Activity", "setting": "[17]", "value": "Active"},
      {"measurement": "Activity", "setting": "[18]", "value": "Active"},
      {"measurement": "Activity", "setting": "[19]", "value": "inactive"}
    ]}
  ]
}
